We go through 2 compounds from US20100093795A1, “Piperidine Derivative Used for Treating Chemokine Receptor 5 Mediated Diseases” (priority 2006, published 2010).

Structures are written as SMILES.

A short description of this data set: Rat pharmacokinetics after intravenous and oral dosing (Example 3). The format is in vivo. The conditions noted are these: Alderley Park Han Wistar; male rat (Han Wistar), oral 2 mg/kg vs intravenous 2 mg/kg, whole blood; read-out: F (bioavailability). The procedure: The rat pharmacokinetic (PK) parameters blood clearance (CL), volume of distribution (Vdss) and half life (t½) are calculated by determining the concentration (exposure) of test compound in whole blood samples taken from rats at various, defined time points subsequent to the intra-venous dosing (administration) of formulated test compound. The rat PK parameter bioavailability (F) is calculated by determining the concentration (exposure) of test compound in whole blood samples taken from rats at various, defined time-points subsequent to the oral dosing (administration) of formulated test compound and then by comparison of the ratio of the dose normalized total oral exposure (AUCpo) with the dose normalized total intra-venous exposure (AUCiv). Fraction absorbed (Fabs) is a secondary PK parameter that is often calculated from a knowledge of the clearance (CL) and bioavailability (F) of a test compound. […]
Calibration standard samples are prepared by addition of known amounts of test compound to blank diluted (1:1) blood samples. […] Following centrifugation, sample and calibration standard supernatants are analysed for test compound concentration by HPLC with MS/MS (triple quad mass spectrometry) detection. Quantification of test compound concentrations in the blood samples taken from the rats is achieved by reference to a standard curve constructed from the calibration standard samples. […]

`Cc1nnc(C(C)C)n1C1CCN(C(C)C[C@@H](c2cc(F)cc(F)c2)C2CCN(S(C)(=O)=O)CC2)CC1` (single isomer, unassigned) [Comparator Compound A]: the bioavailability turned out to be 1%.
In the case of `CCc1nnc(C(C)C)n1C1CCN([C@H](C)C[C@@H](c2cc(F)cc(F)c2)C2CCN(S(C)(=O)=O)CC2)CC1` (single isomer, unassigned), the bioavailability was determined as 28%.

Broadly, the bioavailability is dose-corrected exposure relative to a reference, in per cent.
